Literature values, collected in US10590381B2, “Composition for collecting and preserving placental stem cells and methods of using the composition” (Celularity, Inc., priority 2005, dated 2020).

Assays:
[1] = for hygroscopicity: solid polymorphic form; for conversion at higher relative humidities: stressed at higher relative humidities
[2] = Form A: among anhydrous polymorphs; Form E: in aqueous solvent systems
[3] = Form E: about 125° C. for about five minutes; Form B: 175° C. for about five minutes

| SMILES | hygroscopicity [1] | relative stability among polymorphs [2] | conversion upon heating [3] | conversion at higher relative humidities [1] |
| --- | --- | --- | --- | --- |
| Nc1cccc2c1CN(C1CCC(=O)NC1=O)C2=O (centres unmarked) [Form A, 3-(4-amino-1-oxo-1,3 dihydro-isoindol-2-yl)-piperidene-2,6-dione] | weakly or not hygroscopic | most thermodynamically stable anhydrous polymorph | – | – |
| Nc1cccc2c1CN(C1CCC(=O)NC1=O)C2=O (centres unmarked) [Form B, 3-(4-amino-1-oxo-1,3 dihydro-isoindol-2-yl)-piperidene-2,6-dione] | – | – | can convert to Form F | – |
| Nc1cccc2c1CN(C1CCC(=O)NC1=O)C2=O (centres unmarked) [Form C, 3-(4-amino-1-oxo-1,3 dihydro-isoindol-2-yl)-piperidene-2,6-dione] | not hygroscopic below about 85% RH | – | – | can convert to Form B at higher relative humidities |
| Nc1cccc2c1CN(C1CCC(=O)NC1=O)C2=O (centres unmarked) [Form D, 3-(4-amino-1-oxo-1,3 dihydro-isoindol-2-yl)-piperidene-2,6-dione] | either weakly or not hygroscopic | – | – | will typically convert to Form B |
| Nc1cccc2c1CN(C1CCC(=O)NC1=O)C2=O (centres unmarked) [Form E, 3-(4-amino-1-oxo-1,3 dihydro-isoindol-2-yl)-piperidene-2,6-dione] | – | – | can convert to Form B | – |
